Assay results published in patent US11918587B2, “Treatment of cancer with a RAF inhibitor” (Kinnate Biopharma Inc., priority 2021, dated 2024).
Like-named read-outs stand apart in the source and are kept apart here.

What was measured:
[1] = tested on: SK-MEL-2 human melanoma cells; assay: 7-day CellTiter-Glo growth assay with binimetinib combination and synergy analysis; assay type: cell-based; settings: SK-MEL-2, 168 h
Experimental: SK-MEL-2 human melanoma cells were obtained from American Type Culture Collection and maintained in DMEM+10% FBS+1% penicillin/streptomycin. All cells were maintained in a humidified incubator at 37° C. with 5% carbon dioxide (CO2). […] Plates were removed from the incubator and equilibrated at room temperature for 15 minutes. Then, 100 μL of CellTiter-Glo (CTG) reagent was added into each well to be detected (at 1:1 to culture medium). The plates were kept at room temperature for 30 minutes followed by reading on a plate reader. […] Highest single agent (HSA), Bliss, and Loewe synergy models were assessed and utilized to find the most synergistic area score, where scores >10 indicate that the interaction between the two drugs is likely to be synergistic.

[2] = plasma exposure in mice bearing A-375 tumors; assay type: in vivo; settings: athymic nude, mouse, 15-60 mg/kg PO QD, free base, 24-hour period following the last dose, read-out: systemic plasma exposures (AUClast)
[3] = plasma exposure in mice bearing BxPC-3 and WM3629 xenografts; assay type: in vivo; settings: athymic nude, mouse, po, sulfate salt form, 24-hour period following the last dose, read-out: systemic plasma exposures (AUClast)
[4] = tested on: SK-MEL-2 (NRAS Q61R mutant) melanoma xenograft; assay: SK-MEL-2 melanoma xenograft, Compound 1 with binimetinib; assay type: in vivo, mouse
[5] = tested on: WM3629 (NRAS mutant, Class III BRAF mutant) melanoma xenograft; assay: WM3629 melanoma xenograft, compound 1 with binimetinib BID (Example 6); assay type: in vivo, mouse
[6] = tested on: A-375 (Class I BRAF V600E) melanoma xenograft; settings: 60 mg/kg QD; 8 of 9 animals
[7] = mouse, in vivo
[8] = tested on: A-375, BxPC-3, WM3629 xenografts; settings: doses up to 60 mg/kg per day
[9] = mouse, in vivo, po
Experimental: For routine monitoring, all study animals were monitored for not only tumor growth but also any abnormalities of behavior and appearance such as mobility, food and water consumption, body weight, eye appearance, and any other abnormal observations. Any mortality and/or abnormal clinical signs were recorded. Body weights of all animals were measured and recorded every other day throughout the study. The measurement of tumor size was conducted with calipers and recorded three times during the first week and twice weekly during the second and third weeks. The TV (mm^3) was estimated using the formula: TV=a×b^2/2, where “a” and “b” are long and short diameters of a tumor, respectively.

[10] = tested on: NCI-H2405 (Class II BRAF mutant) NSCLC xenograft
pERK in A-375 cells = assay: cells; settings: Homo sapiens, A-375, 1 h, read-out: pERK EC50
pERK in BxPC-3 cells = assay: cells; settings: Homo sapiens, BXPC-3, 1 h, read-out: pERK EC50
pERK in OV-90 cells = assay: cells; settings: Homo sapiens, OV-90, 1 h, read-out: pERK EC50
pERK in NCI-H2405 cells = assay: cells; settings: Homo sapiens, NCI-H2405, 1 h, read-out: pERK EC50
pERK in WM3629 cells = assay: cells; settings: Homo sapiens, WM3629, 1 h, read-out: pERK EC50
pERK in CAL-12T cells = assay: cells; settings: Homo sapiens, 1 h, read-out: pERK EC50
pERK in MIA PaCa-2 cells = assay: cells; settings: Homo sapiens, MIA PaCa-2, 1 h, read-out: pERK EC50
pERK in CHL-1 cells = assay: cells; settings: Homo sapiens, CHL-1, 1 h, read-out: pERK EC50
pERK in COLO 800 cells = assay: cells; settings: Homo sapiens
pERK in Hs 294T cells = assay: cells; settings: Homo sapiens
pERK in SK-MEL-28 cells = assay: cells; settings: Homo sapiens
pERK in HMV-II cells = assay: cells
pERK in SK-MEL-30 cells = assay: cells; settings: Homo sapiens
pERK in IPC-298 cells = assay: cells; settings: Homo sapiens
pERK in SK-MEL-2 cells = assay: cells; settings: Homo sapiens
pERK in AM-38 cells = assay: cells; settings: Homo sapiens
pERK in DBTRG-05MG cells = assay: cells; settings: Homo sapiens
pERK in 8505C cells = assay: cells; settings: Homo sapiens
pERK in IHH-4 cells = assay: cells
pERK in NCI-H2087 cells = assay: cells; settings: Homo sapiens
pERK in NCI-H1666 cells = assay: cells; settings: Homo sapiens
pERK in Calu-6 cells = assay: cells; settings: Homo sapiens
pERK in HCC1195 cells = assay: cells
in vivo = settings: athymic nude, mouse, plasma, oral
[11] = plasma exposure in SK-MEL-2 xenograft study; settings: mouse, oral
[12] = tolerability / body weight in A-375 xenograft study
Experimental: Mean tumor volumes and body weights are plotted, respectively; error bars denote standard error of mean. Percent change in tumor volume was calculated using the following formula: (TVf−TV0)/TV0×100%; where TVf=final tumor volume (at end of treatment) and TV0=initial tumor volume (at beginning of treatment).

[13] = plasma exposure in WM3629 BID combination study (Example 6); settings: athymic BALB/c nude, mouse, oral, 3 mg/kg
[14] = tested on: WM3629 (Class III BRAF mutant) melanoma xenograft; assay: WM3629 melanoma xenograft, Compound 1 with binimetinib QD (Example 3C); assay type: in vivo, mouse; settings: 10 mg/kg QD single agent, 14 days
Text: Mice were assigned to respective groups based on their starting tumor volume and body weight such that the average values were the same for each treatment group.

[15] = 3 mg/kg BID PO 14 days monotherapy

SMILES: Cc1ccc(NC(=O)N2CC[C@@H](CC(F)(F)F)C2)cc1-c1cc(N[C@H](C)CO)nc(N2CCOCC2)c1 [Compound 1, (S)-N-(3-(2-(((R)-1-hydroxypropan-2-yl)amino)-6-morpholinopyridin-4-yl)-4-methylphenyl)-3-(2,2,2-trifluoroethyl)pyrrolidine-1-carboxamide]
- EC50 ([1]; read-out: Compound 1 7-Day CTG EC50, SK-MEL-2, binimetinib 0 nM (single agent, DMSO control)): 0.164 µM
- EC50 ([1]; read-out: Compound 1 7-Day CTG EC50, SK-MEL-2, binimetinib 2 nM): 0.108 µM
- EC50 ([1]; read-out: Compound 1 7-Day CTG EC50, SK-MEL-2, binimetinib 7.8 nM): 0.106 µM
- EC50 ([1]; read-out: Compound 1 7-Day CTG EC50, SK-MEL-2, binimetinib 31.3 nM): 0.065 µM
- EC50 ([1]; read-out: Compound 1 7-Day CTG EC50, SK-MEL-2, binimetinib 125 nM): 0.039 µM
- EC50 ([1]; read-out: Compound 1 7-Day CTG EC50, SK-MEL-2, binimetinib 500 nM): 0.012 µM
- AUC(0-t) [2]: 11.9 to 156 µg·h/mL
- AUC(0-t) ([3]; dosed orally BID (1.5-10 mg/kg)): 4.03 to 42.1 µg·h/mL
- AUC(0-t) ([3]; dosed orally QD (3-20 mg/kg)): 5.2 to 53.7 µg·h/mL
- average TGI ([4]; 10 mg/kg BID 28 days): 13%
- average TGI ([4]; 30 mg/kg BID 28 days): 135%
- ΔT/ΔC ([5]; 1.5 mg/kg BID PO 14 days): 34%
- ΔT/ΔC [5, 15]: 21%
- animals exhibiting tumor regressions [6]: 89%
- tolerability (on-treatment body weight changes) [7]: well tolerated
- tolerability [8]: well-tolerated
- tolerability [9]: well-tolerated
- ΔT/ΔC ([10]; 10 mg/kg BID PO 21 days): 15%
- ΔT/ΔC ([10]; 15 mg/kg BID PO 21 days): −7%
- EC50 (pERK in A-375 cells): 0.0677 µM
- EC50 (pERK in BxPC-3 cells): 0.0507 µM
- EC50 (pERK in OV-90 cells): 0.026 µM
- EC50 (pERK in NCI-H2405 cells): 0.0101 µM
- EC50 (pERK in WM3629 cells): 0.0088 µM
- EC50 (pERK in CAL-12T cells): 0.0184 µM
- EC50 (pERK in MIA PaCa-2 cells): 0.685 µM
- EC50 (pERK in CHL-1 cells): 0.58 µM
- EC50 (pERK in COLO 800 cells): 0.0995 µM
- EC50 (pERK in Hs 294T cells): 0.0769 µM
- EC50 (pERK in SK-MEL-28 cells): 0.107 µM
- EC50 (pERK in HMV-II cells): 0.0446 µM
- EC50 (pERK in SK-MEL-30 cells): 0.0959 µM
- EC50 (pERK in IPC-298 cells): 0.267 µM
- EC50 (pERK in SK-MEL-2 cells): 0.139 µM
- EC50 (pERK in AM-38 cells): 0.0414 µM
- EC50 (pERK in DBTRG-05MG cells): 0.0605 µM
- EC50 (pERK in 8505C cells): 0.0771 µM
- EC50 (pERK in IHH-4 cells): 0.0531 µM
- EC50 (pERK in NCI-H2087 cells): 0.0954 µM
- EC50 (pERK in NCI-H1666 cells): 0.0329 µM
- EC50 (pERK in Calu-6 cells): 0.2 µM
- EC50 (pERK in HCC1195 cells): 0.0833 µM
- AUC(0-t) (in vivo; 30 mg/kg): 31.1 to 123 µg·h/mL
- AUC(0-t) ([11]; 30 mg/kg): 29.9 to 96.1 µg·h/mL
- average weight loss ([12]; 60 mg/kg QD): 5.6%
- weight loss of one animal during the course of treatment ([12]; 60 mg/kg cohort, recovered by end of study): > 10%
- AUC(0-t) [13]: 2.53 to 6.75 µg·h/mL

SMILES: Cn1cnc2c(F)c(Nc3ccc(Br)cc3F)c(C(=O)NOCCO)cc21 [binimetinib, reference compound]
- inhibition of tumor growth [14]: did not lead to significant inhibition of tumor growth
- tumor growth inhibition ([4]; 3 mg/kg BID single agent, 28 days): 23%
- TGI [5, 15]: 37%
- ΔT/ΔC [5, 15]: 63%
- Final Tumor Volume ([5]; 3 mg/kg BID PO 14 days monotherapy, mean ± SEM): 910 ± 69 mm^3
- AUC(0-t) (in vivo; 10 mg/kg): 11 to 26.7 µg·h/mL
- AUC(0-t) ([11]; 3 mg/kg): 7.5 to 10.1 µg·h/mL
- AUC(0-t) [13]: 5.4 to 5.73 µg·h/mL
